For this assay, the target named is T1, human recombinant ALK1 (GST fused to ALK1 intracellular domain [His142-Gln503]) (Homo sapiens, UniProt P37023).
T1 construct: GST fused to ALK1 intracellular domain [His142-Gln503]; made in house
T1 sequence (P37023 142-503): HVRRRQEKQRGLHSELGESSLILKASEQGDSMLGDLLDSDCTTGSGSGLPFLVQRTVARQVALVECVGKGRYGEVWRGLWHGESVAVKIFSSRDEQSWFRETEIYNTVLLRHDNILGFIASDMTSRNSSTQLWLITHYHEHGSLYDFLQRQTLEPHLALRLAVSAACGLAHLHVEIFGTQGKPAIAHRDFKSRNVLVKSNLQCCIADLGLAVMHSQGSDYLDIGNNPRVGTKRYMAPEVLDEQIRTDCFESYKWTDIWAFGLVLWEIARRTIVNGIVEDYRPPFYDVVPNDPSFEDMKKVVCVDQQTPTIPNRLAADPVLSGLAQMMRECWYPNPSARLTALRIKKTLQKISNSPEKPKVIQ
Kind of assay: ALK1-Kinase Flashplate-Assay. Format: biochemical. The note with it: 0.5 μM ATP, biotinylated α-casein substrate; read-out: Assay 1 (ALK1-Kinase Flashplate-Assay IC50 class). In outline: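 Radiometric Flashplate assay at 20 °C: GST-ALK1 intracellular domain (5 ng/well) with 1 μM biotinylated bovine α-casein, 0.5 μM ATP plus [γ-33P]ATP in Tris pH 8.0, 1 mM MnCl2, 1% or 5% DMSO, 60 min. Normalised to no-inhibitor (0%) and 10 mM EDTA (100%); IC50 by 4-parameter fit.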

Consider `COc1cc(-c2cnn3ccc(Nc4cccc(Cl)c4)nc23)ccc1O` [Example 314, 4-[5-(3-Chloro-phenylamino)-pyrazolo[1,5-a]pyrimidin-3-yl]-2-methoxy-phenol], for which the IC50 lay within 1000 to 10000 nM.
Next, `Cc1ccc(S(=O)(=O)Nc2ccc(Nc3ccn4ncc(-c5ccc(C(=O)NCCN(C)C)cc5)c4n3)cc2)cc1` [Example 320, N-(2-Dimethylamino-ethyl)-4-{5-[4-(toluene-4-sulfonylamino)-phenylamino]-pyrazolo[1,5-a]pyrimidin-3-yl}-benzamide]: 1000 to 10000 nM.
Next, `CN(C)CCNC(=O)c1cccc(-c2cnn3ccc(Nc4ccc(O)cc4)nc23)c1` [Example 326, N-(2-Dimethylamino-ethyl)-3-[5-(4-hydroxy-phenylamino)-pyrazolo[1,5-a]pyrimidin-3-yl]-benzamide]: 1000 to 10000 nM; `CN(C)CCNC(=O)c1cccc(-c2cnn3ccc(Nc4ccc(Oc5ccccc5)cc4)nc23)c1` [Example 329, N-(2-Dimethylamino-ethyl)-3-[5-(4-phenoxy-phenylamino)-pyrazolo[1,5-a]pyrimidin-3-yl]-benzamide]: 1000 to 10000 nM.
Next, `CC(=O)Nc1ccc(Nc2ccn3ncc(-c4cccc(N(C)C)c4)c3n2)cc1` [Example 331, N-{4-[3-(3-Dimethylamino-phenyl)-pyrazolo[1,5-a]pyrimidin-5-ylamino]-phenyl}-acetamide]: 1000 to 10000 nM.
As to `COc1ccc(Nc2ccn3ncc(-c4cccc(N(C)C)c4)c3n2)cn1` [Example 332, [3-(3-Dimethylamino-phenyl)-pyrazolo[1,5-a]pyrimidin-5-yl]-(6-methoxy-pyridin-3-yl)-amine], the 50% inhibitory concentration (IC50) fell in the range of 1000 to 10000 nM.
Next, `COc1ccc(Nc2ccn3ncc(-c4cccc(N)c4)c3n2)cn1` [Example 337, [3-(3-Amino-phenyl)-pyrazolo[1,5-a]pyrimidin-5-yl]-(6-methoxy-pyridin-3-yl)-amine]: 1000 to 10000 nM; `Nc1cccc(-c2cnn3ccc(Nc4ccc(O)cc4)nc23)c1` [Example 338, 4-[3-(3-Amino-phenyl)-pyrazolo[1,5-a]pyrimidin-5-ylamino]-phenol]: 1000 to 10000 nM.
As to `OC1CCC(Nc2ccn3ncc(-c4ccc(F)c(Cl)c4)c3n2)CC1` (stereo not drawn) [Example 373, 4-[3-(3-Chloro-4-fluoro-phenyl)-pyrazolo[1,5-a]pyrimidin-5-ylamino]-cyclohexanol], the IC50 was in the range of 1000 to 10000 nM.
Next, `c1ccc(-c2cnn3ccc(NCc4cccnc4)nc23)cc1` [Example 376, (3-Phenyl-pyrazolo[1,5-a]pyrimidin-5-yl)-pyridin-3-ylmethyl-amine]: 1000 to 10000 nM; `c1cncc(CNc2ccn3ncc(-c4cccc5ccccc45)c3n2)c1` [Example 377, (3-Naphthalen-1-yl-pyrazolo[1,5-a]pyrimidin-5-yl)-pyridin-3-ylmethyl-amine]: below 1000 nM; `Fc1ccc(-c2cnn3ccc(NCc4cccnc4)nc23)cc1Cl` [Example 379, [3-(3-Chloro-4-fluoro-phenyl)-pyrazolo[1,5-a]pyrimidin-5-yl]-pyridin-3-ylmethyl-amine]: 1000 to 10000 nM.
For `Clc1cccc(-c2cnn3ccc(NCc4ccncc4)nc23)c1` [Example 395, [3-(3-Chloro-phenyl)-pyrazolo[1,5-a]pyrimidin-5-yl]-pyridin-4-ylmethyl-amine], the IC50 is below 1000 nM.
With `FC(F)(F)c1cccc(-c2cnn3ccc(NCc4ccncc4)nc23)c1` [Example 397, Pyridin-4-ylmethyl-[3-(3-trifluoromethyl-phenyl)-pyrazolo[1,5-a]pyrimidin-5-yl]-amine] the figure was 1000 to 10000 nM.
With `Fc1ccc(-c2cnn3ccc(NCc4ccncc4)nc23)cc1` [Example 398, [3-(4-Fluoro-phenyl)-pyrazolo[1,5-a]pyrimidin-5-yl]-pyridin-4-ylmethyl-amine] the figure was below 1000 nM.
With `Nc1ccc(C(=O)Nc2ccc(Nc3ccn4ncc(-c5ccc(F)cc5)c4n3)cc2)cc1` [Example 400, 4-Amino-N-{4-[3-(4-fluoro-phenyl)-pyrazolo[1,5-a]pyrimidin-5-ylamino]-phenyl}-benzamide] the figure was 1000 to 10000 nM; with `OC1CCC(Nc2ccn3ncc(-c4ccc(F)cc4)c3n2)CC1` (stereo not drawn) [Example 401, 4-[3-(4-Fluoro-phenyl)-pyrazolo[1,5-a]pyrimidin-5-ylamino]-cyclohexanol], 1000 to 10000 nM; with `Clc1cccc(-c2cnn3ccc(NCc4cccnc4)nc23)c1` [Example 402, [3-(3-Chloro-phenyl)-pyrazolo[1,5-a]pyrimidin-5-yl]-pyridin-3-ylmethyl-amine], 1000 to 10000 nM.
With `Fc1cccc(-c2cnn3ccc(NCc4cccnc4)nc23)c1` [Example 405, [3-(3-Fluoro-phenyl)-pyrazolo[1,5-a]pyrimidin-5-yl]-pyridin-3-ylmethyl-amine], the IC50 is 1000 to 10000 nM.
`Fc1ccccc1-c1cnn2ccc(NCc3cccnc3)nc12` [Example 408, [3-(2-Fluoro-phenyl)-pyrazolo[1,5-a]pyrimidin-5-yl]-pyridin-3-ylmethyl-amine]: the IC50 lay within 1000 to 10000 nM.
Regarding `c1ccc2c(-c3cnn4ccc(Nc5ccc(N6CCOCC6)cc5)nc34)cccc2c1` [Example 412, (4-Morpholin-4-yl-phenyl)-(3-naphthalen-1-yl-pyrazolo[1,5-a]pyrimidin-5-yl)-amine], the IC50 lay in the range of 1000 to 10000 nM.
Next, `COc1cc(-c2cnn3ccc(NCc4ccncc4)nc23)cc(OC)c1OC` [Example 418, Pyridin-4-ylmethyl-[3-(3,4,5-trimethoxy-phenyl)-pyrazolo[1,5-a]pyrimidin-5-yl]-amine]: below 1000 nM; `COc1cc(-c2cnn3ccc(Nc4cc(OC)c(OC)c(OC)c4)nc23)ccc1O` [Example 424, 2-Methoxy-4-[5-(3,4,5-trimethoxy-phenylamino)-pyrazolo[1,5-a]pyrimidin-3-yl]-phenol]: 1000 to 10000 nM.
On to `COc1ccc(-c2cnn3ccc(Nc4ccc(OC)nc4)nc23)cc1` [Example 425, [3-(4-Methoxy-phenyl)-pyrazolo[1,5-a]pyrimidin-5-yl]-(6-methoxy-pyridin-3-yl)-amine], for which the IC50 fell in the range of 1000 to 10000 nM.
Take `Cc1ccc(Nc2ccn3ncc(-c4cccc(CO)c4)c3n2)cc1NS(C)(=O)=O` [Example 431, N-{5-[3-(3-Hydroxymethyl-phenyl)-pyrazolo[1,5-a]pyrimidin-5-ylamino]-2-methyl-phenyl}-methanesulfonamide]: the 50% inhibitory concentration (IC50) was 1000 to 10000 nM.
With `COc1ccc(-c2cnn3ccc(Nc4ccc(O)cc4)nc23)c(OC)c1` [Example 435, 4-[3-(2,4-Dimethoxy-phenyl)-pyrazolo[1,5-a]pyrimidin-5-ylamino]-phenol] the figure was 1000 to 10000 nM.
On to `COc1ccc(Nc2ccn3ncc(-c4cccc(C(C)=O)c4)c3n2)cn1` [Example 437, 1-{3-[5-(6-Methoxy-pyridin-3-ylamino)-pyrazolo[1,5-a]pyrimidin-3-yl]-phenyl}-ethanone], for which the IC50 lay in the range of 1000 to 10000 nM.
Next, `COc1cccc(-c2cnn3ccc(Nc4cccc(Cl)c4)nc23)c1` [Example 444, (3-Chloro-phenyl)-[3-(3-methoxy-phenyl)-pyrazolo[1,5-a]pyrimidin-5-yl]-amine]: 1000 to 10000 nM; `CS(=O)(=O)Nc1cccc(-c2cnn3ccc(Nc4ccc(N5CCOCC5)cc4)nc23)c1` [Example 447, N-{3-[5-(4-Morpholin-4-yl-phenylamino)-pyrazolo[1,5-a]pyrimidin-3-yl]-phenyl}-methanesulfonamide]: below 1000 nM; `CC(=O)Nc1cccc(-c2cnn3ccc(Nc4cccc(Cl)c4)nc23)c1` [Example 453, N-{3-[5-(3-Chloro-phenylamino)-pyrazolo[1,5-a]pyrimidin-3-yl]-phenyl}-acetamide]: 1000 to 10000 nM.
Next, `COc1ccc(-c2cnn3ccc(Nc4cc(OC)c(OC)c(OC)c4)nc23)cc1OC` [Example 462, [3-(3,4-Dimethoxy-phenyl)-pyrazolo[1,5-a]pyrimidin-5-yl]-(3,4,5-trimethoxy-phenyl)-amine]: 1000 to 10000 nM.
Next, `COc1cc(Nc2ccn3ncc(-c4ccc(O)cc4)c3n2)cc(OC)c1OC` [Example 463, 4-[5-(3,4,5-Trimethoxy-phenylamino)-pyrazolo[1,5-a]pyrimidin-3-yl]-phenol]: 1000 to 10000 nM; `COc1ccc(Nc2ccn3ncc(-c4ccsc4)c3n2)cn1` [Example 464, (6-Methoxy-pyridin-3-yl)-(3-thiophen-3-yl-pyrazolo[1,5-a]pyrimidin-5-yl)-amine]: 1000 to 10000 nM; `c1cc(-c2cnn3ccc(Nc4ccc(N5CCOCC5)cc4)nc23)cs1` [Example 467, (4-Morpholin-4-yl-phenyl)-(3-thiophen-3-yl-pyrazolo[1,5-a]pyrimidin-5-yl)-amine]: 1000 to 10000 nM.
With `c1ccc(Oc2ccc(Nc3ccn4ncc(-c5ccncc5)c4n3)cc2)cc1` [Example 468, (4-Phenoxy-phenyl)-(3-pyridin-4-yl-pyrazolo[1,5-a]pyrimidin-5-yl)-amine], the IC50 lay within 1000 to 10000 nM.
Next, `c1cc(N2CCOCC2)ccc1Nc1ccn2ncc(-c3ccc4c(c3)OCO4)c2n1` [Example 472, (3-Benzo[1,3]dioxol-5-yl-pyrazolo[1,5-a]pyrimidin-5-yl)-(4-morpholin-4-yl-phenyl)-amine]: 1000 to 10000 nM.

The record behind these values is US20080039455A1, “PYRAZOLOPYRIMIDINES AND SALTS THEREOF, PHARMACEUTICAL COMPOSITIONS COMPRISING SAME, METHODS OF PREPARING SAME AND USES OF SAME” (priority 2006, published 2008).
